Reference: publication PMC3306502 (Cancer research, 2012)

Key:
[1] = test system: LNCaP/AR(cs) xenograft tumors; experiment: LNCaP/AR; conditions: for tumors with >50% regression (volume): 10 mg/kg/day daily-gavage
AR-regulated genes = experiment: qRT-PCR analysis of AR-regulated genes in LNCaP/AR; conditions: absence of R1881; up to 10 μM
VCaP cells = experiment: VCaP proliferation assay; conditions: 7d treatment; for VCaP proliferation, antagonist-mode: with 30pM R1881; for VCaP proliferation, agonist-mode: without R1881
[2] = steady-state plasma- and brain-tissue levels in mice; conditions: 10 mg/kg/day; for Brain C24hr / Plasma C24hr: 28d daily-dosing; for Brain C24hr: 24h after final-dose; for Plasma C24hr: 24h after final-dose (brain study); for Kp: mouse, brain
CRPC [3] = conditions: chemotherapy-naïve and -treated CRPC patients; cited from earlier work
[4] = steady-state plasma and tumor-tissue concentrations in LNCaP/AR; conditions: for Plasma C24hr / Tumor C24hr: 28d dosing, mean ± SD; for Plasma C24hr: 24h after final dose; for Tumor C24hr: LNCaP/AR(cs) xenograft tumor-tissue; for Kp: mouse, tumor, oral
CRPC [5] = conditions: plus prednisone; CRPC patients previously treated with docetaxel; cited from earlier work
LNCaP/AR(cs) xenografts = experiment: LNCaP/AR; conditions: 28d, intact (non-castrate) mice
[6] = test system: PC-3 prostate cancer cells; experiment: growth of AR-negative PC-3 cells
[7] = test system: LNCaP/AR-luc xenograft tumors; experiment: luciferase-imaging of LNCaP/AR-luc xenograft tumors in castrate male mice; conditions: 10 mg/kg/day oral, 17 days
LNCaP/AR tumors = experiment: Ki67 IHC and TUNEL-staining of LNCaP/AR tumor-tissue from castrate mice; conditions: 10 mg/kg/day, 25d
AR = AR binding-assay using MDA-MB-453 cell-extracts
prostate and epididymis = conditions: 10 mg/kg/day for 28 days

CC(O)(CS(=O)(=O)c1ccc(F)cc1)C(=O)Nc1ccc(C#N)c(C(F)(F)F)c1 (stereo not drawn) [bicalutamide, reference compound]
tumors with >50% regression (volume) ([1]; day 28, castrate mice): 1/10
agonist activity on AR-regulated gene expression (AR-regulated genes): altered gene-expression consistent with its well-documented agonist activity
VCaP proliferation, antagonist-mode (VCaP cells): only partially antagonized the effects of R1881
VCaP proliferation, agonist-mode (VCaP cells): induced cell-proliferation in a dose-dependent manner

CNC(=O)c1ccc(N2C(=S)N(c3ccc(C#N)c(C(F)(F)F)c3)C(=O)C2(C)C)cc1F [MDV3100, reference compound]
Brain C24hr [2]: 2.01 ± 0.83 µg/g
Plasma C24hr [2]: 10500 ± 2300 ng/mL
Kp [2]: 0.188 ± 0.044
patients with significant serum-PSA responses (>50% decrease) (CRPC [3]): > 50%
animals with >50% reduction in tumor-volume ([1]; 30 mg/kg/day, day 28, castrate mice): 3 of 19
animals with >50% reduction in tumor-volume ([1]; mouse, in vivo): 12/19
optimal biological dose (OBD: lowest dose yielding maximum efficacy) ([1]; mouse, in vivo): 30–100 mg/kg/day
agonist activity on AR-regulated gene expression (AR-regulated genes): did not exhibit agonist activity
Plasma C24hr ([4]; 1 mg/kg/day): 1080 ± 260 ng/mL
Tumor C24hr ([4]; 1 mg/kg/day): 0.439 ± 0.12 µg/g
Plasma C24hr ([4]; 10 mg/kg/day): 11000 ± 2500 ng/mL
Tumor C24hr ([4]; 10 mg/kg/day): 3.39 ± 1.50 µg/g

CC(=O)O[C@H]1CC[C@@]2(C)C(=CC[C@@H]3[C@@H]2CC[C@]2(C)C(c4cccnc4)=CC[C@@H]32)C1 [abiraterone acetate]
increase in overall survival over control (prednisone only) (CRPC [5]): 3.9 months

CNC(=O)c1ccc(N2C(=S)N(c3cnc(C#N)c(C(F)(F)F)c3)C(=O)C23CCC3)cc1F [ARN-509]
Brain C24hr [2]: 0.479 ± 0.132 µg/g
Plasma C24hr [2]: 1640 ± 300 ng/mL
Kp [2]: 0.293 ± 0.063
anti-tumor effect (LNCaP/AR(cs) xenografts; 10 mg/kg/day): largely confined to stabilization of tumor-growth
animals with robust tumor-regression (>50% reduction in starting tumor volume) (LNCaP/AR(cs) xenografts; 30 mg/kg/day): 6/8
tumors with >50% regression (volume) ([1]; day 28, castrate mice): 8/10
tumors no longer palpable ([1]; 10 mg/kg/day, day 28, of 10 tumors): 2
animals with >50% reduction in tumor-volume ([1]; 100 mg/kg/day, day 28, castrate mice): 13/19
optimal biological dose (OBD: lowest dose yielding maximum efficacy) ([1]; LNCaP/AR model): 10–30 mg/kg/day
effect on growth of AR-negative PC-3 cells [6]: no significant effect on growth
androgen-driven luciferase reporter-gene activity normalized to tumor volume, vs vehicle [7]: consistently reduced
increase in apoptotic rate (TUNEL) versus vehicle (LNCaP/AR tumors): 10 fold
oral bioavailability (dog pharmacokinetics): high
plasma half-life (dog pharmacokinetics): long
AR binding in cell-extracts, ARN-509 vs bicalutamide (AR): does not differentiate between ARN-509 and bicalutamide
oral bioavailability (mouse pharmacokinetics): high
plasma half-life (mouse pharmacokinetics): long
agonist activity on AR-regulated gene expression (AR-regulated genes): did not exhibit agonist activity
VCaP proliferation, antagonist-mode (VCaP cells): antagonized the proliferative effect of R1881
VCaP proliferation, agonist-mode (VCaP cells): fails to stimulate proliferation
apoptotic-rate in dog prostates (TUNEL-staining) (prostate and epididymis): no change in apoptotic-rate
epididymis histopathology / spermatozoa (prostate and epididymis): contained minimal spermatozoa
prostate histopathology (prostate and epididymis): lack of glandular secretory activity
reduction in epididymis weight (prostate and epididymis; not statistically significant): 1.7 fold
reduction in weight of dog prostates (prostate and epididymis; p<0.05 vs vehicle): 3 fold
Plasma C24hr ([4]; 1 mg/kg/day): 425 ± 160 ng/mL
Tumor C24hr ([4]; 1 mg/kg/day): 0.991 ± 0.30 µg/g
Plasma C24hr ([4]; 10 mg/kg/day): 3310 ± 980 ng/mL
Tumor C24hr ([4]; 10 mg/kg/day): 3.26 ± 0.82 µg/g
Kp ([4]; 1 mg/kg/day): 2.59 ± 0.11
Kp ([4]; 10 mg/kg/day): 1.07 ± 0.44
